Data as given in US12024531B2, “Immunoproteasome inhibitors” (Principia Biopharma Inc., priority 2017, dated 2024).

Legend:
HT29 β5c [1] = target: T1, HT29 β5c (Homo sapiens, UniProt P28074); test: Durability of binding in cells (wash-out, Proteasome-Glo), HT29 β5c; type: cell-based
Experimental: (§1) The durability of binding of proteasome inhibitors was assessed in cells using wash-out assays and the Proteasome-Glo™ Reagent kit. THP-1 cells, HT-29 cells, or PBMC were incubated with an 8-fold dilution series of inhibitor for 2 h. Following 2 h of incubation, cells were washed using 3 occasions of centrifugation followed by resuspension in culture medium. Following inhibitor washout, cells were returned to culture for either 30 minutes, 4 h, or 18 h. Cells were then transferred to white 384 plates, and 20 uL of Proteasome-Glo™ Reagent was added to each well for 10 minutes. Plates were then read on an Analyst HT plate reader using luminescence mode. The percent inhibition of activity was plotted as a function of log compound concentration. The IC50 was then calculated for each compound using Prism software from GraphPad.

PBMC LMP2 [2] = target: T2, PBMC LMP2 (Homo sapiens, UniProt P28065); test: Inhibition of proteasome activity in cells (Proteasome-Glo), PBMC/LMP2; type: cell-based; details: 2 h incubation at 37° C.
Experimental: (§2) The cell-based effects of a compound described herein on the immunoproteasome were determined by measuring inhibition of proteasome activity in cells using the Proteasome-Glo™ Cell-Based Reagent (Promega, Madison WI). The Proteasome-Glo™ assay contains a specific luminogenic proteasome substrate in a buffer optimized for cell permeabilization, proteasome activity, and luciferase activity. For the chymotrypsin-like activity (LMP7 and 05c), the peptide substrate is Suc-LLVY-aminoluciferin (Succinyl-leucine-leucine-valine-tyrosine-aminoluciferin). Cleavage of the substrate by proteasome results in luminescent signal which is proportional to the proteasome activity. The cell line THP-1 (a monocytic leukemia cell line enriched in immunoproteasome), the cell line HT-29 (a colorectal adenocarcinoma cell line enriched in constitutive proteasome), and primary human peripheral blood mononuclear cells (PBMC) were used to assess proteasome activity. Cells were seeded in a 96-well plate at 10,000 cells per well in RPMI 1640 high glucose medium with 10% fetal bovine serum (FBS). Compound dilutions were added to cells starting at a concentration of 5 uM and decreasing in tripling dilutions. The final DMSO concentration was 1%. The concentration range was adjusted as needed for compounds of different potencies. The cells treated with compounds were incubated for 2 h at 37° C. in 5% CO2. At the end of the 2 hour incubation period, cells were transferred to white 384 well assay plates. 20 uL of Proteasome-Glo™ Reagent was added to each well and incubated for 10 minutes at rt. The plate was read in the Analyst HT instrument (Molecular Devices, Sunnyvale, CA) using luminescence mode. The percent inhibition of activity was plotted as a function of log compound concentration. The IC50 was then calculated for each compound using Prism software from GraphPad Software Inc. (San Diego, CA).

[3] = target: immunoproteasome LMP7/B5i subunit (Homo sapiens, UniProt P28062); test: Caliper-based proteasome enzymatic activity assay, LMP7; type: biochemical; details: human recombinant immunoproteasome 0.3 nM, FAM peptide substrate 1 μM, rt 3 h
HT29 β5c [4] = target: T1, HT29 β5c; test: Inhibition of proteasome activity in cells (Proteasome-Glo), HT29/β5c; type: cell-based; details: HT-29 cells, 2 h incubation at 37° C.
Experimental: as §2, with “Compound dilutions were added to cells starting at a concentration of 5 uM and decreasing in tripling dilutions. The final DMSO concentration was 1%. The concentration range was adjusted as needed for compounds of different potencies. The cells treated with compounds were incubated for 2 h at 37° C. in 5% CO2. At the end of the 2 hour incubation period, cells were transferred to white 384 well assay plates. 20 uL of Proteasome-Glo™ Reagent was added to each well and incubated for 10 minutes at rt.” left out, “The percent inhibition of activity was plotted as a function of log compound concentration.” left out

PBMC LMP7 [5] = target: T3, PBMC LMP7 (Homo sapiens, UniProt P28062); test: Durability of binding in cells (wash-out, Proteasome-Glo), PBMC LMP7; type: cell-based
Experimental: as §1

PBMC LMP7 [6] = target: T3, PBMC LMP7; test: Inhibition of proteasome activity in cells (Proteasome-Glo), PBMC/LMP7; type: cell-based; details: 2 h incubation at 37° C.
Experimental: as §2

[7] = target: immunoproteasome LMP2 subunit (Homo sapiens, UniProt P28065); test: Caliper-based proteasome enzymatic activity assay, LMP2; type: biochemical; details: human recombinant immunoproteasome 0.3 nM, FAM peptide substrate 1 μM, rt 2 h
[8] = target: constitutive proteasome β5c subunit (Homo sapiens, UniProt P28074); test: Caliper-based proteasome enzymatic activity assay, β5c; type: biochemical; details: human recombinant constitutive proteasome 0.3 nM, FAM peptide substrate 1 μM, rt 3 h
PBMC LMP2 [9] = target: T2, PBMC LMP2; test: Durability of binding in cells (wash-out, Proteasome-Glo), PBMC LMP2; type: cell-based
Experimental: as §1

[10] = tested on: multiple myeloma cell lines and primary patient tumor cells; details: cited from earlier work
[11] = tested on: Hashimoto's thyroiditis model; details: mouse, in vivo; cited from earlier work
[12] = tested on: production of proinflammatory cytokines (IL-6, TNF-α, IL-23); details: cited from earlier work
[13] = tested on: murine collagen-induced arthritis; details: mouse, in vivo; cited from earlier work
Th1/17 differentiation = details: cited from earlier work
MRL/lpr lupus model = details: cited from earlier work
[14] = tested on: murine DSS-induced colitis model; details: cited from earlier work
tumor growth = details: mouse; cited from earlier work
prostate PC-3 cell line = details: cited from earlier work

Row | Structure (SMILES) | IC50 (PBMC LMP2 [2]) [nM] | IC50 [3] [nM] | IC50 (PBMC LMP7 [6]) [nM] | IC50 [7] [nM] | IC50 [8] [nM] | further results
1 | CC(C)(C)NC(=O)C(C#N)=Cc1cccc(OCCC(=O)N[C@@H](Cc2ccccc2)B(O)O)c1 [Example 2, (R)-(1-(3-(3-(3-(tert-butylamino)-2-cyano-3-oxoprop-1-en-1-yl)phenoxy)propanamido)-2-phenylethyl)boronic Acid] | 3820 | 3 | 5 | 160 | 66 | IC50 (HT29 β5c [1]; 30 min after inhibitor washout): 109 nM; IC50 (HT29 β5c [1]; 4 hr after inhibitor washout): > 5000 nM; IC50 (HT29 β5c [1]; 18 hr after inhibitor washout): > 5000 nM; IC50 (HT29 β5c [4]): 73 nM; IC50 (PBMC LMP7 [5]; 30 min after inhibitor washout): 5 nM; IC50 (PBMC LMP7 [5]; 4 hr after inhibitor washout): 10 nM; IC50 (PBMC LMP7 [5]; 18 hr after inhibitor washout): 126 nM; IC50 (PBMC LMP2 [9]; 4 hr after inhibitor washout): > 5000 nM; IC50 (PBMC LMP2 [9]; 18 hr after inhibitor washout): > 5000 nM
2 | N#CC(=Cc1cccc(OCCC(=O)N[C@@H](Cc2ccccc2)B(O)O)c1)c1ccccn1 [Example 6, (R)-(1-(3-(3-(2-cyano-2-(pyridin-2-yl)vinyl)phenoxy)propanamido)-2-phenylethyl)boronic Acid] | > 5000 | 8 | 7 | 84 | 89 | –
3 | CC(C)(C)NC(=O)C(C#N)=Cc1cccc(OCCC(=O)N[C@@H](CCc2ccccc2)B(O)O)c1 [Example 11, (R)-1-(3-(3-(3-(tert-butylamino)-2-cyano-3-oxoprop-1-enyl)phenoxy)propanamido)-3-phenylpropylboronic Acid] | > 5000 | 2 | 3 | > 5000 | 310 | –
4 | CC(C)(C)NC(=O)C(C#N)=Cc1cccc(OCCC(=O)N[C@@H](Cc2coc3ccccc23)B(O)O)c1 [Example 14, (R)-(2-(benzofuran-3-yl)-1-(3-(3-(3-(tert-butylamino)-2-cyano-3-oxoprop-1-en-1-yl)phenoxy)propanamido)ethyl)boronic Acid] | 510 | 0.2 | 2 | 3240 | 4 | –
5 | CN(C)C(=O)C(C#N)=Cc1cccc(COC(=O)N[C@@H](Cc2ccccc2)B(O)O)c1 [Example 15, (R)-(1-((((3-(2-cyano-3-(dimethylamino)-3-oxoprop-1-en-1-yl)benzyl)oxy)carbonyl)amino)-2-phenylethyl)boronic Acid] | > 5000 | 8 | 18 | 2920 | 3240 | –
6 | CC1=C(C(=O)N[C@H](C)C(=O)N[C@@H](Cc2c[nH]c3ccccc23)C(=O)N[C@@H](Cc2ccccc2)C(=O)[C@@]2(C)CO2)Cc2ccccc21 [PR-924] | – | – | – | – | – | growth of multiple myeloma cell lines and primary patient tumor cells [10]: inhibit growth
7 | COc1ccc(C[C@H](NC(=O)[C@H](C)NC(=O)CN2CCOCC2)C(=O)N[C@@H](Cc2ccccc2)C(=O)[C@@]2(C)CO2)cc1 [PR-957] | – | – | – | – | – | efficacy in autoantibody-driven Hashimoto's thyroiditis model [11]: efficacious; B cell effector functions and production of proinflammatory cytokines (IL-6, TNF-α, IL-23) [12]: potently block; disease activity in murine collagen-induced arthritis [13]: significantly inhibit disease activity; human and mouse Th1/17 differentiation (Th1/17 differentiation): potently block; plasma cell numbers and anti-dsDNA IgG levels (MRL/lpr lupus model): reduced plasma cell numbers and anti-dsDNA IgG levels; inflammation and tissue destruction [14]: reduced inflammation and tissue destruction
8 | CCCCCCC(=O)N[C@@H](C)C(=O)N[C@@H](CC(C)C)C(=O)[C@@]1(CO[Si](C)(C)C(C)(C)C)CO1 [UK-101] | – | – | – | – | – | tumor growth in vivo (tumor growth): significantly suppressed tumor growth; apoptosis of prostate PC-3 cell line in vitro (prostate PC-3 cell line): induced apoptosis

Further lines, with some results ahead:

Row | IC50 (PBMC LMP2 [2]) [nM] | IC50 [3] [nM] | IC50 (PBMC LMP7 [6]) [nM] | IC50 [7] [nM] | IC50 [8] [nM] | Structure (SMILES) | further results
9 | > 5000 | 8 | 9 | > 5000 | 1310 | CN(C)C(=O)C(C#N)=Cc1cccc(CCOC(=O)N[C@@H](Cc2ccccc2)B(O)O)c1 [Example 17, (R)-(1-(((3-(2-cyano-3-(dimethylamino)-3-oxoprop-1-en-1-yl)phenethoxy)carbonyl)amino)-2-phenylethyl)boronic Acid] | –
10 | > 5000 | 11 | 67 | 170 | 43 | CN1CCN(C(=O)C(C#N)=Cc2cccc(OCCC(=O)N[C@@H](Cc3ccccc3)B(O)O)c2)CC1 [Example 19, (R)-(1-(3-(3-(2-cyano-3-(4-methylpiperazin-1-yl)-3-oxoprop-1-en-1-yl)phenoxy)propanamido)-2-phenylethyl)boronic Acid] | –
11 | > 5000 | 3 | 34 | 120 | 32 | CNC(=O)C(C#N)=Cc1cccc(OCCC(=O)N[C@@H](Cc2ccccc2)B(O)O)c1 [Example 20, (R)-(1-(3-(3-(2-cyano-3-(methylamino)-3-oxoprop-1-en-1-yl)phenoxy)propanamido)-2-phenylethyl)boronic Acid] | –
12 | – | 1.7 | 12 | > 5000 | 255 | CCN(CC)C(=O)C(C#N)=Cc1cccc(CCOC(=O)N[C@@H](Cc2coc3ccccc23)B(O)O)c1 [Example 58, (R)-(2-(benzofuran-3-yl)-1-(((3-(2-cyano-3-(diethylamino)-3-oxoprop-1-en-1-yl)phenethoxy)carbonyl)amino)ethyl)boronic Acid] | –
13 | – | 1.1 | 2 | 1020 | 167 | N#CC(=Cc1cccc(CCOC(=O)N[C@@H](Cc2ccccc2)B(O)O)c1)c1ncccn1 [Example 60, (R)-(1-(((3-(2-cyano-2-(pyrimidin-2-yl)vinyl)phenethoxy)carbonyl)amino)-2-phenylethyl)boronic Acid] | –
14 | – | 0.4 | 2 | 2320 | > 5000 | N#CC(=Cc1cccc(CCOC(=O)N[C@@H](Cc2ccccc2)B(O)O)c1)C(=O)N1C2CCC1COC2 [Example 67, ((1R)-1-(((3-(3-(3-oxa-8-azabicyclo[3.2.1]octan-8-yl)-2-cyano-3-oxoprop-1-en-1-yl)phenethoxy)carbonyl)amino)-2-phenylethyl)boronic Acid] | –
15 | – | 0.6 | 2 | 4250 | > 5000 | CCN(C(=O)C(C#N)=Cc1cccc(CCOC(=O)N[C@@H](Cc2ccccc2)B(O)O)c1)C1CCOCC1 [Example 70, (R)-(1-(((3-(2-cyano-3-(ethyl(tetrahydro-2H-pyran-4-yl)amino)-3-oxoprop-1-en-1-yl)phenethoxy)carbonyl)amino)-2-phenylethyl)boronic Acid] | –
